Each structure is given as a SMILES string. “And” between values parts separate entries of the source, which are not always exact repeats. Identical values can stand only once. Where only a bound is given, the exact number is not on record here.

One may read the IC50 as the concentration that inhibits the measured activity by half. In general, EC50 refers to the concentration at which the effect is half-maximal.

For experiment [1], the target named is HIS-Keap1 full length / Biotin-Nrf2 (16-mer) (Homo sapiens, UniProt Q14145). The experiment is described as follows: biochemical.
Experiment [2] has as its system NQO1 activation in BEAS-2B cells. The experiment is described as follows: BEAS-2B cellular MTT assay of NQO1 activation, 0% HSA. Type of experiment: cell-based. As to conditions: serum free, read-out: BEAS EC50 (nM) serum free. As to the method:
(§1) The growth rate of the BEAS-2B cells changed based on the lot of BEGM SingleQuots in the BEGM media. The cell growth rate was determined for each lot of SingleQuots. Ideally, cells were thawed into media with the new lot of SingleQuots and grown for two passages before testing; however, growing an active culture in the new lot of media for two to three passages before testing was also acceptable. Until the cell growth rate was determined, cells were seeded at different densities (cells/cm^2) in multiple tissue culture flasks in order to avoid the cells becoming more than 70% confluent. Cells should not go above 70% confluent as the cells differentiate when they become confluent. After the cells were grown in the new lot of media as described above, the number of cells per well needed to seed in the collagen plates was determined by seeding different numbers of cells per well and incubating for 48 hours. Cell confluency was checked after 48 hours and a cell number that results in just below to just above confluency was chosen for future plate seeding. Cell confluency in the assay plate was 95-100% confluent after 48 hours.
(§2) Cell media consists of BEBM basal media with the BEGM SingleQuots added. SingleQuots vials were thawed in the tissue culture hood, and GA-1000 (Gentamicin-Amphotericin) was not added.
(§3) If complete media was to be used immediately, BEBM basal media was warmed to room temperature in the hood, but not as high as 37° C. When the media was made for future use, SingleQuots were added to cold BEBM. One at a time, the SingleQuots components (except GA-1000) were added to the BEBM media. After removal of each component from the vial, the vial was rinsed with 0.5-1 mL of BEBM (depending on the volume the vial could hold) and added to the bottle of BEBM. Once all components were added, the label that comes with the SingleQuots kit was put on the bottle of media and the date was recorded. The bottle of media was mixed by gentle shaking. The media was not filtered. This media was stored at 4° C., with any leftover media disposed of one month after the date the SingleQuots were added.
(§4) BEAS-2B Cell Splitting Protocol:
(§5) First, Trypsin was warmed to 37° C. in the water bath. The media was then warmed to room temperature by letting it sit in the tissue culture hood, but not as high as 37° C. The media was aspirated from flask(s) and the flask(s) were washed with PBS. From 1 to 1.5 mL of warm trypsin were added to each flask and incubated at 37° C. until cells came off the flask on their own (~8-10 minutes), with no vigorous tapping on the flask to detach the cells.
(§6) Media was added to each flask to a total volume of 8-10 mL per flask and transferred to 15 mL conical tube(s). The cells were spun down at 120 g for 5 minutes, level 5 brake. The cells can be spun down between 100 and 150 g. Next the media was aspirated and the cell pellet was resuspended in fresh media by pipetting up and down and flicking the tube side to side. Any clumps of cells that remained were allowed to settle to the bottom of the tube before the top suspension was transferred into another tube, leaving about 1 mL of media in the original tube. The 1 mL of media and cell clumps were mixed with a single channel p1000 pipette, and any remaining clumps were removed before adding the cells in suspension to the other tube. The suspension was mixed with a pipette, an aliquot was removed, and the cells were counted. The amount of cells/cm^2 desired was calculated and the required volume of cells was added to tissue culture flasks. For example, use of SingleQuots with ~6000 cells/cm^2 was appropriate for a three day incubation and ~3000 cells/cm^2 for a five day incubation. Optimal cell density differed depending on lot of SingleQuots. The flasks were incubated at 37° C. in 5% CO2.
(§7) Day One: Seeding BEAS-2B Cells in Collagen Plates:
(§8) Plate(s) were either seeded with 0.3% or 0% HSA. While the protocol was similar for both conditions any differences are noted herein below. […]
On the technique in general: Tetrazolium assays rely on reduction of a dye to a coloured formazan, in cell work by metabolically active cells.

Experiment [3] shares this test system. The experiment is described as follows: BEAS-2B cellular MTT assay of NQO1 activation, 0.3% HSA. Type of experiment: cell-based. As to conditions: BEAS+, read-out: BEAS+ EC50. As to the method: as §1, §2, §3, §4, §5, §6, §7, §8

Chain of HIS-Keap1 full length / Biotin-Nrf2 (16-mer) (Q14145 whole entry): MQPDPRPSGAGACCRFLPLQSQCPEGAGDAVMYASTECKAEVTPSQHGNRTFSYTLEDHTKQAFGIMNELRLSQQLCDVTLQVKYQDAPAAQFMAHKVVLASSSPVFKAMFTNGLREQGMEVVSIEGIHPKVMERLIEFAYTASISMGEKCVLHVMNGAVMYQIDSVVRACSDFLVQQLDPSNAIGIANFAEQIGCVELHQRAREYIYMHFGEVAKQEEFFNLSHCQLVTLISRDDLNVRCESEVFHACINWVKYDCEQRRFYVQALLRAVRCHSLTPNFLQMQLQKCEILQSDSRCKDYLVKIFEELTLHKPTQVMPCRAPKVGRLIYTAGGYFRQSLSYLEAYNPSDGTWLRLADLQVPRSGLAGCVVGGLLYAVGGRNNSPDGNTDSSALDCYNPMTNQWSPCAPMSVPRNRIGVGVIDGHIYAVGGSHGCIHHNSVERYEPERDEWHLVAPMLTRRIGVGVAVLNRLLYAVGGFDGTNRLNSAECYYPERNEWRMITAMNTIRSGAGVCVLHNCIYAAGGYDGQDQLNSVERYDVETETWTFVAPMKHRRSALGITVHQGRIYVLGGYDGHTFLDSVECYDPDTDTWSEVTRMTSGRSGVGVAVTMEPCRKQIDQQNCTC

For the compound `Cc1c2ccc3c1nnn3CCCCCCc1ccc3c(c1)cc(n3C)C(=O)N1CCc3ccc(cc3C1)[C@@H]2[C@@H](C)C(=O)O` [Compound 28], the half-maximal inhibitory concentration (IC50) in experiment [1] is 0.4 nM and 0.5 nM. The same measure, in the same setting: the value for `Cc1c2ccc3c1nnn3CCCCCCc1ccc3c(c1)cc(n3C)C(=O)N1CCc3ccc(cc3C1)[C@H]2[C@@H](C)C(=O)O` [Compound 29] was 192 nM and 103 nM. Take `O=C(O)C[C@@H]1c2ccc3c(c2)CN(CC3)C(=O)c2cccc(c2)OCCCCCn2nnc3cc1ccc32` [Compound 433]: the IC50 in experiment [1] is 287 nM and 204 nM. On the same count and under the same terms, the same measure for `Cc1c2cccc1C(=O)N1CCc3ccc(cc3C1)C(CC(=O)O)c1ccc3c(nnn3CCCCCO2)c1C` (centres unmarked) [Compound 408]: 1.6 nM and 1.5 nM and 13.2 nM and 5 nM; for `Cc1cc2ccc1C(=O)N1CCc3ccc(cc3C1)[C@@H](C(C)(C)C(=O)O)c1ccc3c(c1)nnn3CCCCCCO2` [Compound 237]: 22.9 nM and 36.1 nM and 70.2 nM and 28.2 nM and 29.9 nM; for `O=C(O)CC1c2ccc3c(c2)CN(CC3)C(=O)c2cccc(c2)OC/C=C/CCn2nnc3cc1ccc32` (centres unmarked) [Compound 439]: 52.7 nM and 121 nM and 119 nM and 122 nM and 106 nM. Same read-out and setting: the value for `Cc1c2ccc3c1nnn3CCCCCCOc1cnc(nc1)C(=O)N1CCc3ccc(cc3C1)C2CC(=O)O` (centres unmarked) [Compound 198] was 0.5 nM and 1.2 nM and 1 nM; that for `O=C(O)CC1c2ccc3c(c2)CN(CC3)C(=O)c2cccc(c2)OCCCCCn2nnc3cc1ccc32` (centres unmarked) [Compound 440] was 64.9 nM and 70.3 nM and 114 nM and 113 nM; that for `Cc1ccc2cc1C(=O)N1CCc3ccc(cc3C1)C(CC(=O)O)c1ccc3c(c1)nnn3CCCCO2` (centres unmarked) [Compound 431] was 102 nM and 96.9 nM. Consider `Cc1c2cccc1C(=O)N1CCc3ccc(cc3C1)C(CC(=O)O)c1ccc3c(c1)nnn3C/C=C/CO2` (centres unmarked) [Compound 429], for which the IC50 in experiment [1] is 112 nM and 82.3 nM. The same measure, in the same setting: the value for `Cc1c2cccc1C(=O)N1CCc3ccc(cc3C1)C(CC(=O)O)c1ccc3c(c1)nnn3CCCCCO2` (centres unmarked) [Compound 420] was 8.5 nM and 8.3 nM. Still for that read-out and setting: the same measure for `O=C(O)C[C@H]1c2ccc3c(c2)CN(CC3)C(=O)c2cccc(c2)OCCCCCn2nnc3cc1ccc32` [Compound 434]: 17.8 nM and 55.4 nM; for `Cc1c2ccc3c1nnn3CCCCCCc1ccc3c(c1)cc(n3C)C(=O)N1CCc3ccc(cc3C1)[C@H]2[C@H](C)C(=O)O` [Compound 30]: 103 nM and 159 nM. Still for that read-out and setting: the same measure for `Cc1ccc2cc1C(=O)N1CCc3ccc(cc3C1)[C@H]([C@@H](C)C(=O)O)c1ccc3c(nnn3CCCCCO2)c1C` [Compound 411]: 5.2 nM and 10.1 nM.

Turning to `Cc1c2ccc3c1nnn3CCCCCOc1cccc(c1)C(=O)N1CCc3ccc(cc3C1)C2CC(=O)O` (centres unmarked) [Compound 421], in experiment [1], the 50% inhibitory concentration (IC50) is 10.1 nM and 8.4 nM. Same read-out and setting: the same measure for `O=C(O)CC1c2ccc3c(c2)CN(CC3)C(=O)c2cccc(c2)OC/C=C/CCn2nnc3ccc1cc32` (centres unmarked) [Compound 436]: 2670 nM and 3410 nM; for `O=C(O)CC1c2ccc3c(c2)CN(CC3)S(=O)(=O)c2ccc(cc2)OCCCCCCn2nnc3cc1ccc32` (centres unmarked) [Compound 404]: 662 nM and 271 nM. For `O=C(O)CC1c2ccc3c(c2)CN(CC3)C(=O)c2ccc(cc2)OC/C=C/CCn2nnc3cc1ccc32` (centres unmarked) [Compound 424], the 50% inhibitory concentration (IC50) in experiment [1] is 4.8 nM and 4.7 nM and 2.2 nM and 0.5 nM. On the same count and under the same terms, the same measure for `Cc1c2ccc3c1nnn3CCCCCCc1ccc(c3c1ccn3C)C(=O)N1CCc3ccc(cc3C1)[C@@H]2CC(=O)O` [Compound 27]: 0.4 nM and 0.3 nM; for `Cc1cc2ccc1C(=O)N1CCc3ccc(cc3C1)C(CC(=O)O)c1ccc3c(nnn3CCCCC2)c1F` (centres unmarked) [Compound 147]: 0.4 nM and 0.3 nM; for `O=C(O)CC1c2ccc3c(c2)CN(CC3)C(=O)c2cccc(c2)OCCOCCn2nnc3cc1ccc32` (centres unmarked) [Compound 410]: 1050 nM and 1900 nM.

With `CC(C)(C(=O)O)C1c2ccc3c(c2)CN(CC3)C(=O)c2ccc(cc2F)CCCCCCn2nnc3cc1ccc32` (centres unmarked) [Compound 281], the IC50 in experiment [1] was 0.4 nM (2×) and 0.5 nM (2×) and 1.4 nM and 0.6 nM. Same read-out and setting: the same measure for `CC(C)(C(=O)O)[C@H]1c2ccc3c(c2)CN(CC3)C(=O)c2c(F)cc(cc2F)OCCCCCCn2nnc3cc1ccc32` [Compound 235]: 0.5 nM and 0.6 nM (2×). Turning to `O=C(O)CC1c2ccc3c(c2)CN(CC3)C(=O)c2ccc(cc2)OCC=CCn2nnc3cc1ccc32` (mixture of isomers) [Compound 419, 2-[(12E)-20-oxo-15-oxa-8,9,10,21-tetrazahexacyclo[19.5.3.216,19.13,7.06,10.024,28]dotriaconta-1(27),3,5,7(32),8,12,16(31),17,19(30),24(28),25-undecaen-2-yl]acetic Acid], in experiment [1], the half-maximal inhibitory concentration (IC50) is 5.7 nM and 19.1 nM and 16.8 nM and 10.8 nM. On the same count and under the same terms, the same measure for `Cc1c2ccc3c1nnn3CCCCCc1ccc(c3c1ccn3C)C(=O)N1CCc3ccc(cc3C1)[C@@H]2CC(=O)O` [Compound 26]: 0.4 nM and 0.3 nM; for `Cc1c2cccc1C(=O)N1CCc3ccc(cc3C1)C(CC(=O)O)c1ccc3c(c1)nnn3CCCCO2` (centres unmarked) [Compound 417]: 42.7 nM and 35.2 nM. With `O=C(O)CC1c2ccc3c(c2)CN(CC3)C(=O)c2cccc(c2)OCCCCCc2nnc3cc1ccn23` (centres unmarked) [Compound 416], the concentration for half-maximal inhibition (IC50) in experiment [1] is 2420 nM and 348 nM. On the same count and under the same terms, the value for `Cc1c2ccc3c1nnn3CCOCCOc1ccc(cc1)C(=O)N1CCc3ccc(cc3C1)C2CC(=O)O` (centres unmarked) [Compound 398] was 5.2 nM and 17.3 nM. Turning to `Cc1ccc2cc1C(=O)N1CCc3ccc(cc3C1)C(CC(=O)O)c1ccc3c(c1)nnn3C/C=C/CO2` (centres unmarked) [Compound 432], in experiment [1], the IC50 was 93.1 nM and 93.3 nM.

Turning to `Cc1ccc2cc1OCCCCCn1nnc3cc(ccc31)C(CC(=O)O)c1ccc3c(c1)CN(CC3)C2=O` (centres unmarked) [Compound 430], the IC50 in experiment [1] was 67.5 nM and 56.1 nM.

In the case of `Cc1nc2ncc1C(CC(=O)O)c1ccc3c(c1)CN(CC3)C(=O)c1c(F)cc(cc1F)OCCCCO2` (centres unmarked) [Compound 197], the 50% inhibitory concentration (IC50) in experiment [1] was 164 nM and 148 nM. As for `Cc1c2cccc1C(=O)N1CCc3ccc(cc3C1)C(CC(=O)O)c1ccc3c(c1)nnn3CC/C=C/CO2` (centres unmarked) [Compound 427], the half-inhibitory concentration (IC50) in experiment [1] is 9.2 nM and 9.9 nM. The same measure, in the same setting: the same measure for `Cc1c2ccc3c1nnn3CCCCCc1ccc(c3ccn(C)c13)C(=O)N1CCc3ccc(cc3C1)[C@@H]2CC(=O)O` [Compound 33]: 0.4 nM and 0.3 nM; for `Cc1c2ccc3c1nnn3CCOCCOc1cccc(c1)C(=O)N1CCc3ccc(cc3C1)C2CC(=O)O` (centres unmarked) [Compound 414]: 106 nM and 313 nM; for `Cc1ccc2cc1OCCCCn1nnc3cc(ccc31)C(CC(=O)O)c1ccc3c(c1)CN(CC3)C2=O` (centres unmarked) [Compound 428]: 1090 nM and 962 nM. The same measure, in the same setting: the value for `O=C(O)CC1c2ccc3c(c2)CN(CC3)C(=O)c2cccc(c2)OCCCCn2nnc3ccc1cc32` (centres unmarked) [Compound 435] was above 30000 nM.

As to `Cc1ccc2cc1OC/C=C/CCn1nnc3cc(ccc31)C(CC(=O)O)c1ccc3c(c1)CN(CC3)C2=O` (centres unmarked) [Compound 418], the half-inhibitory concentration (IC50) in experiment [1] is 390 nM and 381 nM. In the case of `Cc1ccc2cc1C(=O)N1CCc3ccc(cc3C1)C(CC(=O)O)c1ccc3c(c1)nnn3CC/C=C/CO2` (centres unmarked) [Compound 426], the 50% inhibitory concentration (IC50) in experiment [1] was 9.2 nM and 11.6 nM. On the same count and under the same terms, the value for `O=C(O)CC1c2ccc(nc2)OCC/C=C\COc2cccc(c2)C(=O)N2CCc3ccc1cc3C2` (centres unmarked) [Compound 345] was 2900 nM and 3360 nM. On the same count and under the same terms, the same measure for `O=C(O)CC1c2ccc3c(c2)CN(CC3)C(=O)c2ccc(cc2)OCCOCCn2nnc3cc1ccc32` (centres unmarked) [Compound 412]: 28.7 nM and 47.9 nM. Same read-out and setting: the value for `Cc1c2ccc3c1nnn3CCCCCCc1ccc(c3ccn(C)c13)C(=O)N1CCc3ccc(cc3C1)[C@@H]2CC(=O)O` [Compound 32] was 0.5 nM and 0.6 nM.

In the case of `Cc1c2ccc3c1nnn3CCCCCCc1ccc(cc1)C(=O)N1CCc3ccc(cc3C1)[C@@H]2[C@@H](C)C(=O)O` [Compound 176], the 50% effective concentration (EC50) worked out at 0.5 nM in experiment [2] (Homo sapiens), 0.8 nM in experiment [2], 0.2 nM in experiment [3] and 0.1 nM in experiment [3] (Homo sapiens). As to `O=C(O)CC1c2ccc3c(c2)CN(CC3)C(=O)c2ccc(cc2)OCCCCCn2nnc3cc1ccc32` (centres unmarked) [Compound 334], the EC50 in experiment [2] (Homo sapiens) was 547 nM; in experiment [3] (Homo sapiens), 898 nM.

(Values after patent publication US12692274B2, “Tetrahydroisoquinoline derivatives for the treatment of red blood disorders and inflammatory diseases” (Sanofi, priority 2020, dated 2026).)
